# Test results published in patent US20200270588A1, “GLUCOSYL TRANSFERASE POLYPEPTIDES AND METHODS OF USE” (Syngenta Participations AG, priority 2017, published 2020).
# “And” between values parts separate entries of the source, which are not always exact repeats. Equal entries are not always repeated.
# Experiments:
# [1] = tested on: transgenic tobacco plants expressing SEQ ID NO: 16; experiment: Glass house spray test on tobacco, percent damage; assay type: in vivo; conditions: for tolerance compared with w/t and SEQ ID NO: 1 plants: 200 and 500 g/ha, 14 DAT, several events
# Source text: Three transgenic populations of about forty tobacco plants and comprising, a glucosyl transferase gene encoding either zmBX8 (SEQ ID NO 2) or zmBX9 (SEQ ID NO 1) were thus produced. A sub-set of about 30 plants were selected on the basis of similar size from each population for spray testing. The plants were then sprayed with 30 g/ha of Compound VI. VI was mixed in water with 0.2-0.25% X-77 surfactant and sprayed from a boom on a suitable track sprayer moving at 2 mph with the nozzle about 2 inches from the plant tops. Spray volume was 200 l/ha. Plants were assessed for damage and scored at 7 and 14 days after treatment (DAT).
# In a further example, Zea mays BX8 or BX9 or orthologues of BX8/9, are altered to carry amino acid variants at various positions which increase tolerance to the alcohol and aminal PSII herbicides as described in the example above. DNA sequences that encode these polypeptides (optimized for tobacco or, optionally, codon optimized according to a target crop such as soybean) were prepared for tobacco transformation as described in example 10. […] Transgenic tobacco populations expressing SEQ ID NOs 16 and 17 were generated alongside a population expressing the parental zmBX9 sequence (SEQ ID 1). […] Plants were assessed for damage and scored at 14 days after treatment (DAT). The results are depicted in Table 19 and also in FIG. 6.
# [2] = tested on: transgenic tobacco plants expressing zmBX9 (SEQ ID No 1); experiment: Glass house spray test on tobacco, percent damage; assay type: in vivo; conditions: for percent damage: 14 DAT, tobacco expressing SEQ ID NO 1, lines 6266 and 6291, clonal plants A-E
# Method: In the present example, Zea mays BX8 or BX9 or orthologues of BX8/9, for example SEQ ID Nos. 1-59 and various herbicide-active mutations and combinations of mutations thereof (e.g. as listed in Tables 1-9) are expressed in transgenic tobacco. DNA sequences that encode these polypeptides (optimized for tobacco or, optionally, codon optimized according to a target crop such as soybean) are prepared synthetically and obtained commercially from Genewiz (South Plainfield, USA). Each sequence is designed to include a 5′ fusion with TMV omega 5′ leader (SEQ ID NO: 109). The DNA sequences are flanked at the 5′ end with XhoI and at the 3′ end with KpnI to facilitate direct cloning into a suitable binary vector for Agrobacterium-based plant transformation.
# In a particular example, the expression cassette, comprising the TMV omega 5′ leader and a BX encoding gene of interest is excised using XhoI/KpnI and cloned into similarly digested pBIN 19 (Bevan, Nucl. Acids Res. (1984) behind a double enhanced 35S promoter (SEQ ID NO:110) and ahead of a NOS 3′ transcription terminator (SEQ ID NO:111) and then transformed into E. coli DH5 alpha competent cells (see FIG. 5). DNA recovered from the E. coli is used to transform Agrobacterium tumefaciens LBA4404, and the transformed bacteria are selected on media contain rifampicin and kanamycin. Tobacco tissue is subjected to Agrobacterium-mediated transformation using methods well described in the art or as described herein. For example, a master plate of Agrobacterium tumefaciens containing the BX glucosyltransferase expressing binary vector is used to inoculate 10 ml LB (L broth) containing 100 mg/l Rifampicin plus 50 mg/l Kanamycin using a single bacterial colony. This is incubated overnight at 28° C. shaking at 200 rpm. This entire overnight culture is used to inoculate a 50 ml volume of LB containing the same antibiotics. Again this is cultured overnight at 28° C. shaking at 200 rpm. The Agrobacterium cells are pelleted by centrifuging at 3000 rpm for 15 minutes and then resuspended in MS (Murashige and Skoog) medium containing 30 g/l sucrose, pH 5.9 to an OD (600 nM)=0.6. This suspension is dispensed in 25 ml aliquots into petri dishes.
# Once rooted, plantlets are transferred from agar and potted into 50% peat, 50% John Innes Soil No. 3 with slow-release fertilizer in 3 inch round pots and left regularly watered to establish for 8-12d in the glass house. Glass house conditions are about 24-27° C. day; 18-21° C. night and approximately a 14h photoperiod. […]
# Three transgenic populations of about forty tobacco plants and comprising, a glucosyl transferase gene encoding either zmBX8 (SEQ ID NO 2) or zmBX9 (SEQ ID NO 1) were thus produced. […] Plants were assessed for damage and scored at 7 and 14 days after treatment (DAT). […]
Compound,"tolerance ([1]; 1 kg/ha, events 7937, 7940, 7952, 8039, 8071, 8106 expressing SEQ ID NOs 16 and 17, data not shown)",tolerance compared with w/t and SEQ ID NO: 1 plants [1],"tolerance ([2]; 30 g/ha, several transgenic lines)",percent damage ([2]; 500 gai/ha VI),"tolerance ([2]; high rates, best two events)",percent damage ([2]; 500 gai/ha V)
CON1C(=O)N(c2cc(C(F)(F)F)ccn2)C(O)[C@@H]1C (stereo partly shown) [Compound VI],substantially fully tolerant,much superior tolerance,demonstrate tolerance,95% and 90% and 100% and 60% and 70% and 75% and 80%,only partial tolerance,–
CN1CC(O)N(c2cc(C(F)(F)F)ccn2)C1=O (stereo not shown) [Compound V],–,much superior tolerance,–,–,–,100% and 80%
